Results reported in patent US20260325533A1, “CDK INHIBITOR COMPOUNDS” (ALEKSIA THERAPEUTICS, INC., priority 2023, published 2026).
Like-named read-outs stand apart in the source and are kept apart here. One block for each compound: values may come before it.

Legend:
Type in all cases: biochemical
CDK2/CCNE1 = CDK2/CCNE1 (Homo sapiens, UniProt P24941); test: CDK2 homogeneous time-resolved fluorescence (HTRF) kinase assay; settings: CDK2/CCNE
Summary of the method: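 3 nM CDK2/CCNE1 was preincubated with compound for 20 min at 23 °C in HEPES buffer (pH not stated), then reacted 60 min with 1 mM ATP and 50 nM ULight-4E-BP1 (Thr37/46) peptide. After EDTA stop, Eu-anti-phospho-4E-BP1 antibody (2 nM) was added for 60 min and TR-FRET read at 665 nm.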

CDK6/CCND1 = CDK6/CCND1 (Homo sapiens, UniProt Q00534); test: CDK6 homogeneous time-resolved fluorescence (HTRF) kinase assay; settings: CDK6/CCND
Summary of the method: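 Enzyme pre-incubated 20 min at 23 °C with compound, then reacted 60 min at 23 °C with 1 mM ATP and 50 nM ULight-4E-BP1 (Thr37/46) peptide; 1 nM enzyme, 1% DMSO. EDTA-stopped, Eu-anti-phospho antibody TR-FRET read (665 nm or 665/615 ratio); 11-point half-log titration from 10 μM gave IC50.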

CDK1/CCNB1 = CDK1/CCNB1 (Homo sapiens, UniProt P06493); test: CDK1 homogeneous time-resolved fluorescence (HTRF) kinase assay; settings: CDK1/CCNB
Summary of the method: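 0.5 nM CDK1/CCNB1 was preincubated 20 min at 23 °C with compound in HEPES pH-unspecified buffer (MgCl2, EGTA, DTT, Tween 20), then reacted 60 min with 1 mM ATP and 50 nM ULight-4E-BP1 (Thr37/46) peptide. EDTA-stopped reactions were detected with 2 nM Eu-anti-phospho antibody; IC50 from 11-point half-log titrations.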

CDK4/CCND3 = CDK4/CCND3 (Homo sapiens, UniProt P11802); test: CDK4 homogeneous time-resolved fluorescence (HTRF) kinase assay; settings: CDK4/CCND
Summary of the method: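 CDK4/CCND3 at 1.5 nM was preincubated with compound for 20 min at 23 °C, then reacted for 60 min with 1 mM ATP and 50 nM ULight-4E-BP1 (Thr37/46) peptide. The reaction was stopped with EDTA, and phosphorylation was read by HTRF with a Eu-anti-phospho antibody. IC50 values came from 11-point half-log titrations, typically from 10 μM.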

[1] = 25-250 nM, read-out: CDK2/CCNE IC50, 25-250 nM
[2] = >250 nM, 1 mM ATP, read-out: CDK6/CCND IC50, >250 nM
[3] = >250 nM, read-out: CDK1/CCNB IC50 >250 nM
[4] = >250 nM, read-out: CDK4/CCND IC50, >250 nM
[5] = <25 nM, read-out: CDK2/CCNE IC50 <25 nM
[6] = >250 nM marked x, read-out: CDK6/CCND IC50 >250 nM
[7] = >250 nM marked x, read-out: CDK1/CCNB IC50 >250 nM
[8] = >250 nM marked x, read-out: CDK4/CCND IC50 >250 nM
[9] = <25 nM, read-out: CDK2/CCNE IC50, <25 nM
[10] = 25-250 nM marked x, read-out: CDK1/CCNB IC50 25-250 nM
[11] = x = IC50 >250 nM, read-out: CDK6/CCND IC50 (>250 nM column)
[12] = x = IC50 >250 nM, read-out: CDK1/CCNB IC50 (>250 nM column)
[13] = x = IC50 >250 nM, read-out: CDK4/CCND IC50 (>250 nM column)
[14] = x = IC50 <25 nM, read-out: CDK2/CCNE IC50 (<25 nM)
[15] = 25-250 nM marked x, read-out: CDK2/CCNE IC50 25-250 nM
[16] = <25 nM, read-out: CDK4/CCND IC50 <25 nM
[17] = x = IC50 25-250 nM, read-out: CDK2/CCNE IC50 (25-250 nM)

Sequence of CDK1/CCNB1 (P06493 whole entry): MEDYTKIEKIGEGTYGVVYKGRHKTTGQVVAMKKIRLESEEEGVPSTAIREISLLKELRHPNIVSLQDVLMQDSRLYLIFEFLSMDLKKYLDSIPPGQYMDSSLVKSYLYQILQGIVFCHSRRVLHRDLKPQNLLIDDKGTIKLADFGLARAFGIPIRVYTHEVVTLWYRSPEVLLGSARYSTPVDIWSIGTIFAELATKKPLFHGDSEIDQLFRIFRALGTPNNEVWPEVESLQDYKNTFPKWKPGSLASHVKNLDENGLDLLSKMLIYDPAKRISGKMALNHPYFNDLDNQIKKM
Sequence of CDK1/CCNB1 (P14635 whole entry partner): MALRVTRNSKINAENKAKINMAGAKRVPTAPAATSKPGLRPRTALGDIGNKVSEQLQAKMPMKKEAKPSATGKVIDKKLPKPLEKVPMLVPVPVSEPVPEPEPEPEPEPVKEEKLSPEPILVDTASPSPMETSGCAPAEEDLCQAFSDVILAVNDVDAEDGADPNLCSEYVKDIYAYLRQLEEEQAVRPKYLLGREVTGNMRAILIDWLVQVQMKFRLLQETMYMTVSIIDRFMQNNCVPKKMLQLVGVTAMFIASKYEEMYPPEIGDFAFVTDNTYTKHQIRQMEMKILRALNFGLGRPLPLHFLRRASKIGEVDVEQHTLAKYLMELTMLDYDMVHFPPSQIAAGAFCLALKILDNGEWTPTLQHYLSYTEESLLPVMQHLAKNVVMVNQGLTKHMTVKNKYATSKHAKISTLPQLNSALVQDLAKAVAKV
Sequence of CDK6/CCND1 (Q00534 whole entry): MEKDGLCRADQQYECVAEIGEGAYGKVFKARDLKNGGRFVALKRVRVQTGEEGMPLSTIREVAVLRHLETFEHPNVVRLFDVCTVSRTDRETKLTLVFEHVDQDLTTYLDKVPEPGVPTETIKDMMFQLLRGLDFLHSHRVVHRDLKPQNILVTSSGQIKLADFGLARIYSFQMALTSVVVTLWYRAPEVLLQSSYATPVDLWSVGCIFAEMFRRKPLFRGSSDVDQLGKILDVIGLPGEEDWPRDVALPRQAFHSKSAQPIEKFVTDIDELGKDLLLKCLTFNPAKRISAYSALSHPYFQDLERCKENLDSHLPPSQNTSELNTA
Sequence of CDK6/CCND1 (P24385 whole entry partner): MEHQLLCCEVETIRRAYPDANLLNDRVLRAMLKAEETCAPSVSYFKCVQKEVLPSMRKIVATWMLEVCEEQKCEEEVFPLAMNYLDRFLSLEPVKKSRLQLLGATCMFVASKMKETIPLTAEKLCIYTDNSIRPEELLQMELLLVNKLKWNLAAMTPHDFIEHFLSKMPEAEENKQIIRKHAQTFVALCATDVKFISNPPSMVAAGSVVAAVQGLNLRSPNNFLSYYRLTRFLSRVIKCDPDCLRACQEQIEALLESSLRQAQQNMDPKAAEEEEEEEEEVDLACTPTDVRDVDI
Sequence of CDK4/CCND3 (P11802 whole entry): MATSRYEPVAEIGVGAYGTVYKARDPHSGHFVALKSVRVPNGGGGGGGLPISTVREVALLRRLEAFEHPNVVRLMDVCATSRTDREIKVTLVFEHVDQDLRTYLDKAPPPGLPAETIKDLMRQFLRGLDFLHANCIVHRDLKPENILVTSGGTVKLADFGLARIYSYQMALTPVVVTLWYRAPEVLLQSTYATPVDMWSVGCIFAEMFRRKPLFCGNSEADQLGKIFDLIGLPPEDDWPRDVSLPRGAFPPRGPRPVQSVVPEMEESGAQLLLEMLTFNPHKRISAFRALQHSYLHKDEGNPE
Sequence of CDK4/CCND3 (P30281 whole entry partner): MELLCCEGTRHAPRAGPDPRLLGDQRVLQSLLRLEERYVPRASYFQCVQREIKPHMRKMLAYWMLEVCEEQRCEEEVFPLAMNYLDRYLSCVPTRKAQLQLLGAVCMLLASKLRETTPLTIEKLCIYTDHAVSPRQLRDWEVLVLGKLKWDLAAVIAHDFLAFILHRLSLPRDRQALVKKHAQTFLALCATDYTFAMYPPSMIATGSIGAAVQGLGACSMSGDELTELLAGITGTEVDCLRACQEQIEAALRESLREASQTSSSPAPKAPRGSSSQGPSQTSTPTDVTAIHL

IC50 (CDK2/CCNE1; x = IC50 >250 nM, read-out: CDK2/CCNE IC50 (>250 nM column)): > 0.25 µM
IC50 (CDK6/CCND1; [11]): > 0.25 µM
IC50 (CDK1/CCNB1; [12]): > 0.25 µM
IC50 (CDK4/CCND3; [13]): > 0.25 µM
SMILES: CC1(C)C(=O)Nc2cc(C#Cc3nccc4cnc(Nc5ccc(S(C)(=O)=O)cc5C(F)(F)F)cc34)ccc21 [Ex 352, 3,3-dimethyl-6-((7-((4-(methylsulfonyl)-2-(trifluoromethyl)phenyl)amino)-2,6-naphthyridin-1-yl)ethynyl)indolin-2-one]

IC50 (CDK2/CCNE1; [14]): < 0.025 µM
IC50 (CDK6/CCND1; [11]): > 0.25 µM
IC50 (CDK1/CCNB1; [12]): > 0.25 µM
IC50 (CDK4/CCND3; [13]): > 0.25 µM
SMILES: CS(=O)(=O)c1ccc(Nc2cc3c(C#Cc4ccc(=O)[nH]n4)nccc3cn2)cc1 [Ex 618, 6-((7-((4-(methylsulfonyl)phenyl)amino)-2,6-naphthyridin-1-yl)ethynyl)pyridazin-3(2H)-one]

IC50 (CDK2/CCNE1; [5]): < 0.025 µM
IC50 (CDK6/CCND1; 25-250 nM marked x, read-out: CDK6/CCND IC50 25-250 nM): 0.025 to 0.25 µM
IC50 (CDK1/CCNB1; [7]): > 0.25 µM
IC50 (CDK4/CCND3; [16]): < 0.025 µM
SMILES: CS(=O)(=O)c1ccc(Nc2cc3c(C#C[C@H]4CC[C@H](O)CC4)nccc3cn2)cc1 [Ex 150, (1r,4r)-4-((7-((4-(methylsulfonyl)phenyl)amino)-2,6-naphthyridin-1-yl)ethynyl)cyclohexan-1-ol]

IC50 (CDK2/CCNE1; [17]): 0.025 to 0.25 µM
IC50 (CDK6/CCND1; [11]): > 0.25 µM
IC50 (CDK1/CCNB1; [12]): > 0.25 µM
IC50 (CDK4/CCND3; [13]): > 0.25 µM
SMILES: CS(=O)(=O)c1ccc(Nc2cc3c(C#Cc4c(N)cccc4Cl)nccc3cn2)cc1 [Ex 576, 5-((2-amino-6-chlorophenyl)ethynyl)-N-(4-(methylsulfonyl)phenyl)-2,6-naphthyridin-3-amine]

IC50 (CDK2/CCNE1; [15]): 0.025 to 0.25 µM
IC50 (CDK6/CCND1; [6]): > 0.25 µM
IC50 (CDK1/CCNB1; [7]): > 0.25 µM
IC50 (CDK4/CCND3; [8]): > 0.25 µM
SMILES: Cc1c(-c2nccc3cnc(Nc4ccc(S(C)(=O)=O)cc4)cc23)ccc2c1cnn2C1CCN(C)CC1 [Ex 242, 5-(4-methyl-1-(1-methylpiperidin-4-yl)-1H-indazol-5-yl)-N-(4-(methylsulfonyl)phenyl)-2,6-naphthyridin-3-amine]

IC50 (CDK2/CCNE1; [14]): < 0.025 µM
IC50 (CDK6/CCND1; [11]): > 0.25 µM
IC50 (CDK1/CCNB1; x = IC50 25-250 nM, read-out: CDK1/CCNB IC50 (25-250 nM)): 0.025 to 0.25 µM
IC50 (CDK4/CCND3; [13]): > 0.25 µM
SMILES: CC1(C)C(=O)Nc2cc(C#Cc3nccc4cnc(Nc5ccc(S(C)(=O)=O)cn5)cc34)ccc21 [Ex 439, 3,3-dimethyl-6-((7-((5-(methylsulfonyl)pyridin-2-yl)amino)-2,6-naphthyridin-1-yl)ethynyl)indolin-2-one]

IC50 (CDK2/CCNE1; [17]): 0.025 to 0.25 µM
IC50 (CDK6/CCND1; [11]): > 0.25 µM
IC50 (CDK1/CCNB1; [12]): > 0.25 µM
IC50 (CDK4/CCND3; [13]): > 0.25 µM
SMILES: CS(=O)(=O)c1ccc(Nc2cc3c(C#Cc4ccc(C5CC5)nc4)nccc3cn2)cc1 [Ex 517, 5-((6-cyclopropylpyridin-3-yl)ethynyl)-N-(4-(methylsulfonyl)phenyl)-2,6-naphthyridin-3-amine]

Further lines, the compound ahead of its results:

SMILES: COc1cc(Nc2cc3c(-c4ccc5c(cnn5CC(C)(C)O)c4C)nccc3cn2)ccc1S(C)(=O)=O [Ex 837, 1-(5-(7-((3-methoxy-4-(methylsulfonyl)phenyl)amino)-2,6-naphthyridin-1-yl)-4-methyl-1H-indazol-1-yl)-2-methylpropan-2-ol]
IC50 (CDK2/CCNE1; [1]): 0.025 to 0.25 µM
IC50 (CDK6/CCND1; [2]): > 0.25 µM
IC50 (CDK1/CCNB1; [3]): > 0.25 µM
IC50 (CDK4/CCND3; [4]): > 0.25 µM

SMILES: CCS(=N)(=O)c1ccc(Nc2cc3c(C#Cc4ccc5c(c4)NC(=O)C54CC4)nccc3cn2)c(OC)c1 (single isomer, unassigned) [Ex 289, 6'-((7-((4-(ethylsulfonimidoyl)-2-methoxyphenyl)amino)-2,6-naphthyridin-1-yl)ethynyl)spiro[cyclopropane-1,3'-indolin]-2'-one]
IC50 (CDK2/CCNE1; [5]): < 0.025 µM
IC50 (CDK6/CCND1; [6]): > 0.25 µM
IC50 (CDK1/CCNB1; [7]): > 0.25 µM
IC50 (CDK4/CCND3; [8]): > 0.25 µM

SMILES: COc1cnc(NS(=O)(=O)c2ccc(Nc3cc4c(-c5ccc6c(cnn6CC(O)(C(F)(F)F)C(F)(F)F)c5C)nccc4cn3)cc2)nc1 [Ex 743, N-(5-methoxypyrimidin-2-yl)-4-((5-(4-methyl-1-(3,3,3-trifluoro-2-hydroxy-2-(trifluoromethyl)propyl)-1H-indazol-5-yl)-2,6-naphthyridin-3-yl)amino)benzenesulfonamide]
IC50 (CDK2/CCNE1; [9]): < 0.025 µM
IC50 (CDK6/CCND1; [2]): > 0.25 µM
IC50 (CDK1/CCNB1; [3]): > 0.25 µM
IC50 (CDK4/CCND3; [4]): > 0.25 µM

SMILES: Cc1cc(S(=N)(=O)C2COC2)ccc1Nc1cc2c(C#Cc3ccc4c(c3)NC(=O)C43CC3)nccc2cn1 (single isomer, unassigned) [Ex 268, 6'-((7-((2-methyl-4-(oxetane-3-sulfonimidoyl)phenyl)amino)-2,6-naphthyridin-1-yl)ethynyl)spiro[cyclopropane-1,3'-indolin]-2'-one]
IC50 (CDK2/CCNE1; [5]): < 0.025 µM
IC50 (CDK6/CCND1; [6]): > 0.25 µM
IC50 (CDK1/CCNB1; [10]): 0.025 to 0.25 µM
IC50 (CDK4/CCND3; 25-250 nM marked x, read-out: CDK4/CCND IC50 25-250 nM): 0.025 to 0.25 µM

SMILES: Cc1c(-c2nccc3cnc(Nc4ccc(S(=O)(=O)Nc5nccc(C(F)(F)F)n5)cc4)cc23)ccc2c1cnn2CC(O)(C(F)(F)F)C(F)(F)F [Ex 744, 4-((5-(4-methyl-1-(3,3,3-trifluoro-2-hydroxy-2-(trifluoromethyl)propyl)-1H-indazol-5-yl)-2,6-naphthyridin-3-yl)amino)-N-(4-(trifluoromethyl)pyrimidin-2-yl)benzenesulfonamide]
IC50 (CDK2/CCNE1; [1]): 0.025 to 0.25 µM
IC50 (CDK6/CCND1; [2]): > 0.25 µM
IC50 (CDK1/CCNB1; [3]): > 0.25 µM
IC50 (CDK4/CCND3; [4]): > 0.25 µM

SMILES: O=S(=O)(CCO)c1ccc(Nc2cc3c(N4CCC(O)C4)nccc3cn2)cc1 (racemic) [Ex 221, 1-(7-((4-((2-hydroxyethyl)sulfonyl)phenyl)amino)-2,6-naphthyridin-1-yl)pyrrolidin-3-ol]
IC50 (CDK2/CCNE1; [15]): 0.025 to 0.25 µM
IC50 (CDK6/CCND1; [6]): > 0.25 µM
IC50 (CDK1/CCNB1; [7]): > 0.25 µM
IC50 (CDK4/CCND3; [8]): > 0.25 µM

SMILES: Cc1c(-c2nccc3cnc(Nc4ccc(S(=O)(=O)Nc5ccncn5)cc4)cc23)ccc2c1cnn2CC(C)(C)O [Ex 797, 4-((5-(1-(2-hydroxy-2-methylpropyl)-4-methyl-1H-indazol-5-yl)-2,6-naphthyridin-3-yl)amino)-N-(pyrimidin-4-yl)benzenesulfonamide]
IC50 (CDK2/CCNE1; [1]): 0.025 to 0.25 µM
IC50 (CDK6/CCND1; [2]): > 0.25 µM
IC50 (CDK1/CCNB1; [3]): > 0.25 µM
IC50 (CDK4/CCND3; [4]): > 0.25 µM

SMILES: Cc1c(-c2nccc3cnc(Nc4ccc(NS(=O)(=O)c5cccc6nonc56)cc4)cc23)ccc2c1cnn2CC(C)(C)O [Ex 821, N-(4-((5-(1-(2-hydroxy-2-methylpropyl)-4-methyl-1H-indazol-5-yl)-2,6-naphthyridin-3-yl)amino)phenyl)benzo[c][1,2,5]oxadiazole-4-sulfonamide]
IC50 (CDK2/CCNE1; [9]): < 0.025 µM
IC50 (CDK6/CCND1; [2]): > 0.25 µM
IC50 (CDK1/CCNB1; [3]): > 0.25 µM
IC50 (CDK4/CCND3; [4]): > 0.25 µM

SMILES: CCC1(CC)C(=O)Nc2cc(C#Cc3nccc4cnc(Nc5ccc(S(=O)(=O)CC(F)(F)F)cc5F)cc34)ccc21 [Ex 283, 3,3-diethyl-6-((7-((2-fluoro-4-((2,2,2-trifluoroethyl)sulfonyl)phenyl)amino)-2,6-naphthyridin-1-yl)ethynyl)indolin-2-one]
IC50 (CDK2/CCNE1; >250 nM marked x, read-out: CDK2/CCNE IC50 >250 nM): > 0.25 µM
IC50 (CDK6/CCND1; [6]): > 0.25 µM
IC50 (CDK1/CCNB1; [7]): > 0.25 µM
IC50 (CDK4/CCND3; [8]): > 0.25 µM

SMILES: CS(=O)(=O)N1CCC(Nc2cc3c(N4CCC(C#N)C4)nccc3cn2)CC1 (single isomer, unassigned) [Ex 115, 1-(7-((1-(methylsulfonyl)piperidin-4-yl)amino)-2,6-naphthyridin-1-yl)pyrrolidine-3-carbonitrile]
IC50 (CDK2/CCNE1; [5]): < 0.025 µM
IC50 (CDK6/CCND1; <25 nM, read-out: CDK6/CCND IC50 <25 nM): < 0.025 µM
IC50 (CDK1/CCNB1; [10]): 0.025 to 0.25 µM
IC50 (CDK4/CCND3; [16]): < 0.025 µM
